Measured values reported in patent US20250024871A1, “AMIDE COMPOUNDS AND THEIR USE AS FLAVOR MODIFIERS” (Firmenich Incorporated, priority 2021, published 2025).

Biological target: T1, T1R umami taste receptor (Homo sapiens, UniProt Q7RTX0+Q7RTX1)
T1 sequence (Q7RTX1 21-841): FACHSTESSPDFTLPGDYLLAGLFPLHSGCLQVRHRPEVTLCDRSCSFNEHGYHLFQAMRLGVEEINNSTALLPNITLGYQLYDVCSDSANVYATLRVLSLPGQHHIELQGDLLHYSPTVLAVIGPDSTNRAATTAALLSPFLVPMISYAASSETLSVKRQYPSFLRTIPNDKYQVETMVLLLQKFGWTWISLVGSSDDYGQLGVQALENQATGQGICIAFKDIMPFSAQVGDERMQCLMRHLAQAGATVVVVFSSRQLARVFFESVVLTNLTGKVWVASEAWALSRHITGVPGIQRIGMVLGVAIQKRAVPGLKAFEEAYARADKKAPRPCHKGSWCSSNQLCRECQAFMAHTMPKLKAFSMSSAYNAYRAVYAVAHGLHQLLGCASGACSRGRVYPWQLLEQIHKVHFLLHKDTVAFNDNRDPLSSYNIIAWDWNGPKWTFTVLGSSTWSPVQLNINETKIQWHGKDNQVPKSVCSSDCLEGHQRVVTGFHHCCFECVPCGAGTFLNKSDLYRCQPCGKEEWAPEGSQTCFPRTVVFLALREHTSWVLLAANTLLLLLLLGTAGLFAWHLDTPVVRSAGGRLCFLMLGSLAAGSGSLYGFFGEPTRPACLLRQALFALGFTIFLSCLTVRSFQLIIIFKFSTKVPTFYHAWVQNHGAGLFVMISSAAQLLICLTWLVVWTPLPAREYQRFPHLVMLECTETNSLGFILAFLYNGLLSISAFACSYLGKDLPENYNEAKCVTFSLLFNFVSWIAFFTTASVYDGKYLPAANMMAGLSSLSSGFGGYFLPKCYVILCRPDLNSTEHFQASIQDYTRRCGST
T1 sequence (Q7RTX0 21-852): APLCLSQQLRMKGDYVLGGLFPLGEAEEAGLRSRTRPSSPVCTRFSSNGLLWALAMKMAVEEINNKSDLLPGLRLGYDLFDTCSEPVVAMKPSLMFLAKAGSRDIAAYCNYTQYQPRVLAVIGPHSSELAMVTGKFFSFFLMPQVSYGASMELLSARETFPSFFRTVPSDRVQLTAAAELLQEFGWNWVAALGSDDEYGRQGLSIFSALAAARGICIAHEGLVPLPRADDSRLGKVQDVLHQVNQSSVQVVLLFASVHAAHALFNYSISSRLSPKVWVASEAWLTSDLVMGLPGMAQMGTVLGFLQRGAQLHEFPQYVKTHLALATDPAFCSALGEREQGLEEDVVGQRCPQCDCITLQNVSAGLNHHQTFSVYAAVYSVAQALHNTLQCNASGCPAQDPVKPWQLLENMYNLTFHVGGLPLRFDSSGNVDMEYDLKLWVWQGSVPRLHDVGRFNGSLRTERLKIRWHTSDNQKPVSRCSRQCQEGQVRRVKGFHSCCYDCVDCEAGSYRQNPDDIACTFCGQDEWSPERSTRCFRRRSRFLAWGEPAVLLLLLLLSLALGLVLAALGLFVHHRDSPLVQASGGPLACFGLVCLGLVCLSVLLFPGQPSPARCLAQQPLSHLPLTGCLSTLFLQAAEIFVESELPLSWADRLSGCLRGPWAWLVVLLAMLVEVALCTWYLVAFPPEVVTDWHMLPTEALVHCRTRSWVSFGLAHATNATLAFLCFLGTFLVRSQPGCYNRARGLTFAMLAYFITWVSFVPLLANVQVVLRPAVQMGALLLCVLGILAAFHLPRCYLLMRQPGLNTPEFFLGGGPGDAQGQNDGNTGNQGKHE
Test: in vitro cell-based assay having cells that express the T1R umami taste receptor (enhancement of MSG)
Settings: for EC50: cells expressing T1R umami taste receptor, read-out: EC50 for enhancement of MSG binding
Procedure: Each of Compounds 101-183 was synthesized according to one of the general procedures set forth above in Examples 1. Thereafter, the compounds were tested in an in vitro cell-based assay having cells that express the T1R umami taste receptor. Dose-binding curves were recorded and the EC50 was determined for enhancement of MSG binding. Table 2 sets forth the calculated EC50 values for certain tested compounds as well as the MSG enhancement ratio at a particular concentration.

Compound	EC50	MSG Enh. Ratio (compound at 50 μM)	MSG Enh. Ratio (compound at 1 μM)	MSG Enh. Ratio (compound at 10 μM)
CCOC(=O)[C@@H](NC(=O)/C=C/c1ccc2c(c1)OCO2)C(C)C [Compound 159, Ethyl (E)-(3-(benzo[d][1,3]dioxol-5-yl)acryloyl)-L-valinate]	> 50 µM	5.8 @	–	–
CCOC(=O)[C@H](Cc1ccccc1)NC(=O)/C=C/c1ccc(OC)cc1 [Compound 148, Ethyl (E)-(3-(4-methoxyphenyl)acryloyl)-L-phenylalaninate]	10.1 µM	–	3.5 @	–
COC(=O)[C@H](Cc1ccccc1)NC(=O)c1ccc(OC)c(OC)c1 [Compound 123, Methyl (3,4-dimethoxybenzoyl)-L-phenylalaninate]	> 50 µM	2.5 @	–	–
CCOC(=O)[C@@H](NC(=O)/C=C/c1ccc2c(c1)OCO2)[C@@H](C)CC [Compound 163, Ethyl ((E)-3-(benzo[d][1,3]dioxol-5-yl)acryloyl)-L-isoleucinate]	> 50 µM	2.4 @	–	–
COC(=O)[C@@H](CC(C)C)NC(=O)c1ccc(C)c(C)c1 [Compound 114, Methyl (3,4-dimethylbenzoyl)-D-leucinate]	0.7 µM	–	–	–
CCOC(=O)[C@@H](CC(C)C)NC(=O)c1ccc(C)c(C)c1 [Compound 115, Ethyl (3,4-dimethylbenzoyl)-D-leucinate]	0.1 µM	–	–	–

Continued, values first:

EC50	MSG Enh. Ratio (compound at 50 μM)	MSG Enh. Ratio (compound at 1 μM)	MSG Enh. Ratio (compound at 10 μM)	Compound
15 µM	–	–	4.4 @	CCOC(=O)[C@@H](NC(=O)/C=C/c1ccccc1OC)C(C)C [Compound 143, Ethyl (E)-(3-(2-methoxyphenyl)acryloyl)-L-valinate]
> 50 µM	3.2 @	–	–	COC(=O)[C@H](Cc1ccccc1)NC(=O)c1cccc(OC)c1 [Compound 107, Methyl (3-methoxybenzoyl)-L-phenylalaninate]
–	–	–	3.6 @	CCOC(=O)[C@H](Cc1ccccc1)NC(=O)/C=C/C(C)C [Compound 172, Ethyl (E)-(4-methylpent-2-enoyl)-L-phenylalaninate]
> 50 µM	2.7 @	–	–	CCOC(=O)[C@@H](NC(=O)c1cccc(OC)c1)C(C)C [Compound 108, Ethyl (3-methoxybenzoyl)-L-valinate]
0.5 µM	–	–	–	CCOC(=O)[C@@H](CC(C)C)NC(=O)c1ccc2c(c1)OCO2 [Compound 130, Ethyl (benzo[d][1,3]dioxole-5-carbonyl)-D-leucinate]
